Measurements: paper PMC9804084, “Multiple drug transporters contribute to the brain transfer of levofloxacin” (CNS Neuroscience & Therapeutics, 2022)
Like-named read-outs stand apart in the source and are kept apart here.

Key:
[1] = system: T1, Breast cancer resistance protein (BCRP); assay: In vivo microdialysis pharmacokinetics of LVFX with BCRP inhibitor Ko143; conditions: rat, intravenous, with Ko143 15 mg/kg i.p., 30 min before LVFX, Ko143 group, Ko143 15 mg/kg i.p. + LVFX 50 mg/kg, N=5
T1 construct: from tissue; host or cells: living rat (blood-brain barrier, choroid plexus)
Experimental: (§1) On the day of surgery, rats were anesthetized using inhaled isoflurane via a facemask. The rats were placed in a stereotaxic frame (Gene&I), and the body temperature was maintained with a homoeothermic blanket set at 37°C. A midline incision was made to expose the skull. According to the Paxinos and Watson atlas, two microdialysis intracerebral guide cannulae (Eicom Co.) were implanted into the hippocampus CA1 region (Hp‐CA1 coordinates: AP −4.16 mm; ML −2.2 mm; DV −2.9 mm) and lateral ventricle (LV coordinates: AP −1.4 mm; ML +2.2 mm; DV −3.4 mm). Fixed to the skull using a screw and dental cement. After 3 days of recovery, the rats were anesthetized with isoflurane again. An intravascular probe (TP‐100‐20; 20 mm, Eicom Co.) was implanted into the jugular vein toward the right atrium. After the blood microdialysis probe was positioned within the jugular vein, the pipeline was connected to perfuse with ACD solution (citric acid 3.5 mM; sodium citrate 7.5 mM; dextrose 13.6 mM) at a flow rate of […], and the Hamilton microinjection pump was used for continuous perfusion. After stopping isoflurane inhalation, the rats were allowed to wake up naturally on the homoeothermic blanket. The awake rats were placed in a device that allowed them to move freely. Animals were allowed to recover for an additional 24 h.
(§2) All microdialysate concentrations (C m) from the hippocampal ECF and lateral ventricle CSF were converted to the unbound drug concentration (C u) at the target site using the following formula: C u = C m/R dial.
(§3) A total of 32 rats were randomly divided into the following groups: • Control group, N = 12: vehicle solution + LVFX (50 mg/kg). • TAR group, N = 5: Tariquidar (8 mg/kg) + LVFX (50 mg/kg). • Ko143 group, N = 5: Ko143 (15 mg/kg) + LVFX (50 mg/kg). • MK571 group, N = 5: MK571 (20 mg/kg) + LVFX (50 mg/kg). • PRO group, N = 5: Probenecid (50 mg/kg) + LVFX (50 mg/kg).
(§4) Levofloxacin was freshly dissolved in isotonic saline and administered via tail vein injection. Thirty minutes before LVFX administration, the intervention drugs of each group were injected intraperitoneally. To reduce the possible effect of solvents on BBB or BCSFB permeability of LVFX, we prioritized water as the solvent. However, Tariquidar and Ko143 are insoluble in water, and a cosolvent must be used to prepare agents that animals can tolerate. According to the different physicochemical properties of these four inhibitors, the preparation of each transporter inhibitor solution in this experiment was as follows. • P‐glycoprotein (P‐gp) inhibitor Tariquidar[22]: Tariquidar was freshly dissolved in DMSO to 8 mg/ml and then diluted to 4 mg/ml with a solution containing 10% Tween‐80, 25% PEG300, and 65% sterile water. • Breast cancer resistance protein (BCRP) inhibitor Ko143[23]: Ko143 was freshly dissolved in DMSO to 15 mg/ml and then diluted to 7.5 mg/ml with a solution containing 10% Tween‐80, 25% PEG300, and 65% sterile water. • Multidrug resistance‐associated proteins (MRPs) inhibitor MK571[24]: MK571 sodium salt hydrate was dissolved in 1.25% (w/v) aq sodium hydrogen carbonate (NaHCO3) solution to obtain a concentration of 10 mg/ml. • Organic anion transporters (OATs) inhibitor probenecid[25]: Probenecid was dissolved in NaOH (pH = 9.0–9.2) alkalized physiological saline to obtain a concentration of 25 mg/ml.
(§5) The pipelines where the blood and brain probes were installed were perfused at the speed of 2 μl/min with ACD solution and ACSF, respectively. Two brain probes were inserted into guide cannulas of the target site and allowed to equilibrate for 1 h. Subsequently, the rats were treated according to their corresponding groups in the device where they could move freely. Microdialyses samples were collected every 15 min using a fraction collector (EFC‐96, Eicom Co.) for 3 h and stored at 4°C until analysis. Finally, rats were anesthetized and decapitated, and their brain was harvested.

[2] = system: Multidrug resistance-associated proteins (MRPs); assay: In vivo microdialysis pharmacokinetics of LVFX with MRPs inhibitor MK571; set-up: species or system rat; conditions: for increase of AUC0–180 / increase of C max: treatment with MK571 vs control group; for Kp / MRT / half-life / Tmax / AUC(0-inf) / Cmax / AUC(0-t): rat, intravenous; for Kp: with MK571 20 mg/kg intraperitoneally; for MRT / half-life / Tmax / AUC(0-inf) / Cmax / AUC(0-t): with MK571 20 mg/kg i.p.; for MRT / half-life / AUC(0-inf) / Cmax / AUC(0-t): mean ± SD; for AUC(0-t): read-out: AUC0–180 (converted)
Experimental: as §1, §2, §3, §4, §5

[3] = Stability of LVFX in QC samples (dialysate solvents) under storage conditions; type: physicochemical; conditions: for Calculated concentration (mean ± SD): n=3
Experimental: Using artificial cerebrospinal fluid (ACSF) and Ringer's solution as solvents, the LVFX concentration required for calibration and quality control (QC) samples was obtained by appropriate step‐by‐step dilution. A calibration curve was constructed using the relationship between the analyte peak area and analyte concentration obtained in the range of 0.01–30 μg/ml. Linearity was assessed by a weighted (1/x ^2) least squares regression analysis. The accuracy and precision of the method were evaluated by QC samples of high, medium, and low concentrations. Quantification of the concentration of QC samples was conducted three times on the same day to evaluate the intra‐day precision and accuracy. The same procedure was employed for 3 consecutive days to evaluate the inter‐day precision and accuracy of this method. The relative error (RE%) and relative standard deviation (RSD%) were used to evaluate the accuracy and precision, respectively. We evaluated the stability of LVFX in dialysates under short‐term (6 h) room temperature, low temperature (4°C), and freeze–thaw conditions (three cycles).

[4] = MK571 intervention vs control group
[5] = CSF (lateral ventricle microdialysate, unbound), 30 min before LVFX, CSF, MK571 group, MK571 20 mg/kg i.p. + LVFX 50 mg/kg, N=5
[6] = CSF (lateral ventricle microdialysate, unbound), CSF, MK571 group, MK571 20 mg/kg i.p. + LVFX 50 mg/kg, N=5
[7] = brain ECF (hippocampal microdialysate, unbound), 30 min before LVFX, brain ECF, MK571 group, MK571 20 mg/kg i.p. + LVFX 50 mg/kg, N=5
[8] = 30 min before LVFX, blood, MK571 group, MK571 20 mg/kg i.p. + LVFX 50 mg/kg, N=5

Kp ([1]; CSF / blood (unbound, microdialysate), AUCu,CSF/AUCu,blood, read-out: K p,uu,CSF): 0.424 ± 0.035
Kp ([1]; brain ECF / blood, AUCu,ECF/AUCu,blood, read-out: K p,uu,ECF): 0.389 ± 0.024
K p,uu,CSF ([2]; AUCu,CSF/AUCu,blood, MK571 group, MK571 20 mg/kg i.p. + LVFX 50 mg/kg, N=5): 47.9 ± 2.4 %
K p,uu,ECF ([2]; AUCu,ECF/AUCu,blood, MK571 group, MK571 20 mg/kg i.p. + LVFX 50 mg/kg, N=5): 46.0 ± 1.5 %
increase of AUC0–180 ([2]; CSF): 1.26 fold
increase of C max ([2]; CSF): 1.50 fold
increase in K p,uu,CSF [2, 4]: 1.16 fold
increase in K p,uu,ECF [2, 4]: 1.35 fold
increase of AUC0–180 ([2]; brain ECF): 1.47 fold
increase of C max ([2]; brain ECF): 1.55 fold
Kp ([2]; CSF (lateral ventricle microdialysate) relative to blood, 30 min before LVFX, AUCu,CSF/AUCu,blood, MK571 group, MK571 20 mg/kg i.p. + LVFX 50 mg/kg, N=5, read-out: K p,uu,CSF): 0.479 ± 0.024
MRT [2, 5]: 75.8 min
half-life [2, 5]: 54.9 ± 7.43 min
Tmax [2, 6]: 15 min
AUC(0-inf) [2, 6]: 5860 ng·h/mL
Cmax [2, 6]: 5460 ± 190 ng/mL
AUC(0-t) [2, 6]: 5290 ng·h/mL
Kp ([2]; brain ECF (hippocampal microdialysate) relative to blood, 30 min before LVFX, AUCu,ECF/AUCu,blood, MK571 group, MK571 20 mg/kg i.p. + LVFX 50 mg/kg, N=5, read-out: K p,uu,ECF): 0.46 ± 0.015
Tmax [2, 7]: 15 min
AUC(0-inf) [2, 7]: 5630 ng·h/mL
Cmax [2, 7]: 4210 ± 350 ng/mL
MRT [2, 7]: 80.9 min
half-life [2, 7]: 49 ± 15.1 min
AUC(0-t) [2, 7]: 5080 ng·h/mL
Tmax [2, 8]: 15 min
AUC(0-inf) [2, 8]: 11700 ng·h/mL
Cmax [2, 8]: 10100 ± 310 ng/mL
MRT [2, 8]: 69.7 min
half-life [2, 8]: 39.5 ± 4.79 min
AUC(0-t) [2, 8]: 11000 ng·h/mL
stability under storage conditions employed ([3]; QC samples, room temp 6 h, 4°C, freeze–thaw 3 cycles): stable
maximum deviation in stability test of QC samples ([3]; all storage conditions (Table 2)): 4.71%
Calculated concentration (mean ± SD) ([3]; freeze–thaw (3 cycles), nominal concentration 0.3 μg/ml): 0.289 ± 0.008 µg/mL
Calculated concentration (mean ± SD) ([3]; freeze–thaw (3 cycles), nominal concentration 3 μg/ml): 2.960 ± 0.140 µg/mL
Calculated concentration (mean ± SD) ([3]; freeze–thaw (3 cycles), nominal concentration 30 μg/ml): 29.959 ± 0.417 µg/mL
Calculated concentration (mean ± SD) ([3]; low temperature (4°C) 12 h, nominal concentration 0.3 μg/ml): 0.294 ± 0.012 µg/mL
Calculated concentration (mean ± SD) ([3]; low temperature (4°C) 12 h, nominal concentration 3 μg/ml): 3.055 ± 0.105 µg/mL
Calculated concentration (mean ± SD) ([3]; low temperature (4°C) 12 h, nominal concentration 30 μg/ml): 29.844 ± 0.102 µg/mL
Calculated concentration (mean ± SD) ([3]; short term (room temp) 6 h, nominal concentration 0.3 μg/ml): 0.293 ± 0.011 µg/mL
Calculated concentration (mean ± SD) ([3]; short term (room temp) 6 h, nominal concentration 3 μg/ml): 3.098 ± 0.056 µg/mL
Calculated concentration (mean ± SD) ([3]; short term (room temp) 6 h, nominal concentration 30 μg/ml): 30.608 ± 0.405 µg/mL
SMILES: C[C@H]1COc2c(N3CCN(C)CC3)c(F)cc3c(=O)c(C(=O)O)cn1c23 [LVFX, Levofloxacin]
